Source: ChEMBL document CHEMBL1201862, “PubChem BioAssay data set” (2004)
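Exposure lasted 48 hours, with cells grown in 96-well plates and compounds tested at five concentrations. GI50 marks 50% less growth.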 Calls of active or inactive are those of the source. No stated cut-off is given here; in the data, active = GI50 up to about 1.1 µM and inactive = higher.

Tests used:
Assay in all cases: NCI tumour cell line growth inhibition, 48 h
NCI-H460 = tested on: NCI-H460
OVCAR-8 = tested on: OVCAR-8
A549 = tested on: A549
M14 = tested on: M14
NCI-H226 = tested on: NCI-H226
CAKI-1 = tested on: CAKI-1
ACHN = tested on: ACHN
HCC 2998 = tested on: HCC 2998
HT-29 = tested on: HT-29
SK-MEL-28 = tested on: SK-MEL-28
TK-10 = tested on: TK-10
UACC-257 = tested on: UACC-257
SW-620 = tested on: SW-620
RPMI-8226 = tested on: RPMI-8226
NCI-H522 = tested on: NCI-H522
OVCAR-4 = tested on: OVCAR-4
MOLT-4 = tested on: MOLT-4
SNB-75 = tested on: SNB-75

Measured: GI50

N#Cc1ccc(C(C2C(=O)NC(=O)NC2=O)C2C(=O)NC(=O)NC2=O)cc1
inactive: NCI-H460 > 100 µM | OVCAR-8 > 100 µM | A549 > 100 µM | M14 > 100 µM | NCI-H226 > 100 µM | CAKI-1 > 100 µM | ACHN > 100 µM | HCC 2998 > 100 µM | HT-29 > 100 µM | SK-MEL-28 > 100 µM | TK-10 > 100 µM | UACC-257 > 100 µM | SW-620 > 100 µM | RPMI-8226 > 100 µM | NCI-H522 > 100 µM | OVCAR-4 > 100 µM | MOLT-4 > 100 µM

Cc1ccc(S(=O)(=O)N/N=C(\CCN2CCCC2)CC(c2ccccc2)c2c(O)c3ccccc3oc2=O)cc1 (stereo unspecified)
inactive: NCI-H460 > 100 µM | SNB-75 > 100 µM | OVCAR-8 > 100 µM | A549 > 100 µM | M14 > 100 µM | NCI-H226 > 100 µM | CAKI-1 > 100 µM | ACHN > 100 µM | HT-29 > 100 µM | TK-10 > 100 µM | UACC-257 > 100 µM | SW-620 49.5 µM | RPMI-8226 > 100 µM | NCI-H522 99.5 µM | OVCAR-4 > 100 µM

CC1=C(C(=O)O)N2C(=O)[C@@H](NC(=O)C(c3ccccc3)N3CSC(=S)N(C(C)C)C3)C2SC1 (stereo partly specified)
inactive: NCI-H460 > 100 µM | SNB-75 > 100 µM | OVCAR-8 > 100 µM | M14 > 100 µM | CAKI-1 > 100 µM | ACHN > 100 µM | HT-29 > 100 µM | SK-MEL-28 59 µM | TK-10 > 100 µM | UACC-257 > 100 µM | RPMI-8226 > 100 µM | NCI-H522 30.4 µM | OVCAR-4 > 100 µM | MOLT-4 > 100 µM

CCOC(=O)NC(=O)c1cn(C2OC(COC(=O)CCCCCCCCC(=O)OCC3OC(n4cc(C(=O)NC(=O)OCC)c(=O)[nH]c4=O)C(O)C3O)C(O)C2O)c(=O)[nH]c1=O (stereo unspecified)
inactive: NCI-H460 > 100 µM | SNB-75 > 100 µM | OVCAR-8 > 100 µM | A549 > 100 µM | M14 > 100 µM | NCI-H226 > 100 µM | CAKI-1 > 100 µM | ACHN > 100 µM | HCC 2998 > 100 µM | HT-29 > 100 µM | SK-MEL-28 > 100 µM | TK-10 > 100 µM | UACC-257 > 100 µM | SW-620 > 100 µM | RPMI-8226 > 100 µM | OVCAR-4 > 100 µM | MOLT-4 > 100 µM

COc1ccc(C(C#N)Cc2cc(OC)c(OC)c(OC)c2)cc1 (stereo unspecified)
inactive: NCI-H460 12.1 µM | OVCAR-8 37 µM | A549 30.6 µM | M14 33.4 µM | NCI-H226 94.2 µM | CAKI-1 29.3 µM | ACHN 45.8 µM | HT-29 33 µM | SK-MEL-28 54.8 µM | TK-10 37.6 µM | UACC-257 50.5 µM | SW-620 15.7 µM | RPMI-8226 23.4 µM | NCI-H522 22.4 µM | OVCAR-4 39.3 µM | MOLT-4 28.2 µM

CSc1ccc(Cc2cc(C(C)(C)C)cc(C(C)(C)C)c2O)cc1
inactive: NCI-H460 14 µM | SNB-75 16 µM | OVCAR-8 16.9 µM | A549 13.6 µM | M14 15.1 µM | CAKI-1 16.7 µM | ACHN 15 µM | HCC 2998 18.5 µM | HT-29 13.8 µM | SK-MEL-28 16.5 µM | TK-10 12.9 µM | UACC-257 14.7 µM | SW-620 16.1 µM | RPMI-8226 4.45 µM | OVCAR-4 15.4 µM | MOLT-4 8.07 µM

N#CC(C(=O)/C(=N\Nc1nc(S)nn1N)C(C#N)c1ccc(Cl)cc1)c1ccc(Cl)cc1 (stereo unspecified)
inactive: NCI-H460 > 100 µM | SNB-75 > 100 µM | OVCAR-8 > 100 µM | A549 > 100 µM | M14 > 100 µM | NCI-H226 > 100 µM | CAKI-1 > 100 µM | ACHN > 100 µM | HCC 2998 > 100 µM | HT-29 > 100 µM | SK-MEL-28 > 100 µM | TK-10 > 100 µM | UACC-257 > 100 µM | SW-620 > 100 µM | RPMI-8226 > 100 µM | OVCAR-4 > 100 µM

COC(=O)/C(=N\Nc1nnc(C)n1N)C(C#N)c1ccc(Cl)cc1 (stereo unspecified)
inactive: NCI-H460 > 100 µM | SNB-75 > 100 µM | OVCAR-8 > 100 µM | A549 > 100 µM | M14 > 100 µM | NCI-H226 > 100 µM | CAKI-1 > 100 µM | ACHN > 100 µM | HCC 2998 > 100 µM | HT-29 > 100 µM | SK-MEL-28 > 100 µM | TK-10 > 100 µM | UACC-257 > 100 µM | SW-620 > 100 µM | RPMI-8226 > 100 µM | OVCAR-4 > 100 µM

O=C(N/N=C/c1cc(Br)ccc1O)N/N=C/c1cc(Br)ccc1O
inactive: NCI-H460 3.1 µM | OVCAR-8 2.54 µM | A549 1.56 µM | NCI-H226 2.02 µM | CAKI-1 2.79 µM | ACHN 4.6 µM | HT-29 5.97 µM | SK-MEL-28 > 100 µM | TK-10 54.6 µM | UACC-257 4.3 µM | SW-620 1.73 µM | NCI-H522 1.99 µM | OVCAR-4 3.72 µM | MOLT-4 1.97 µM

O=C(O)CCc1nn2c(nc1=O)sc1ccc3ccccc3c12
inactive: NCI-H460 > 100 µM | SNB-75 > 100 µM | OVCAR-8 > 100 µM | A549 > 100 µM | M14 > 100 µM | NCI-H226 > 100 µM | CAKI-1 > 100 µM | ACHN > 100 µM | HCC 2998 > 100 µM | HT-29 > 100 µM | SK-MEL-28 > 100 µM | TK-10 > 100 µM | UACC-257 > 100 µM | SW-620 > 100 µM | RPMI-8226 > 100 µM | OVCAR-4 > 100 µM | MOLT-4 > 100 µM

COc1ccc(/C=N\N2C(=O)Cc3ccccc32)cc1
inactive: NCI-H460 > 100 µM | SNB-75 17.9 µM | OVCAR-8 > 100 µM | A549 > 100 µM | M14 86.1 µM | NCI-H226 > 100 µM | CAKI-1 > 100 µM | ACHN > 100 µM | HCC 2998 25.4 µM | HT-29 > 100 µM | SK-MEL-28 > 100 µM | TK-10 59.6 µM | UACC-257 > 100 µM | SW-620 > 100 µM | RPMI-8226 > 100 µM | OVCAR-4 > 100 µM | MOLT-4 41.4 µM

Cc1cccc2c(=O)cc(-c3ccccc3)[nH]c12
inactive: NCI-H460 3.95 µM | SNB-75 1.73 µM | A549 6.11 µM | M14 3.45 µM | NCI-H226 20.2 µM | ACHN 12.2 µM | HCC 2998 4.39 µM | HT-29 3.1 µM | SK-MEL-28 > 100 µM | TK-10 > 100 µM | UACC-257 5.22 µM | SW-620 2.6 µM | RPMI-8226 5.4 µM | OVCAR-4 4.09 µM | MOLT-4 4.54 µM

CN1OC(CO)CC12C1CC3CC(C1)CC2C3 (stereo unspecified)
inactive: NCI-H460 > 100 µM | SNB-75 > 100 µM | OVCAR-8 > 100 µM | A549 > 100 µM | M14 > 100 µM | CAKI-1 > 100 µM | ACHN > 100 µM | HCC 2998 > 100 µM | HT-29 > 100 µM | SK-MEL-28 > 100 µM | TK-10 > 100 µM | SW-620 > 100 µM | RPMI-8226 > 100 µM | NCI-H522 > 100 µM | OVCAR-4 > 100 µM | MOLT-4 > 100 µM

NC(=S)N/N=C(\C(=O)Nc1ccc(Cl)c(Cl)c1)C1=NN(c2ccccc2)C(c2cccc([N+](=O)[O-])c2)CC1=O (stereo unspecified)
inactive: NCI-H460 36.6 µM | SNB-75 26.5 µM | OVCAR-8 26.7 µM | A549 75.2 µM | M14 55.1 µM | NCI-H226 25.9 µM | CAKI-1 79.4 µM | ACHN 39.2 µM | HCC 2998 40.6 µM | HT-29 16.5 µM | SK-MEL-28 52.5 µM | TK-10 > 100 µM | UACC-257 30.2 µM | SW-620 13.8 µM | RPMI-8226 3.37 µM | OVCAR-4 20 µM | MOLT-4 17.3 µM

CC(C)(C)C1=Cc2cc3cc(C(C)(C)C)[nH]c(=O)c3cc2S(=O)(=O)N1
inactive: NCI-H460 37 µM | SNB-75 37.8 µM | OVCAR-8 39.8 µM | A549 23.2 µM | M14 14.6 µM | NCI-H226 19.9 µM | CAKI-1 12.2 µM | ACHN 30.3 µM | HT-29 22.9 µM | SK-MEL-28 31.3 µM | TK-10 29.6 µM | UACC-257 25.1 µM | SW-620 21 µM | RPMI-8226 30.3 µM | NCI-H522 15.3 µM | OVCAR-4 24.6 µM | MOLT-4 28.1 µM

C=CCN(N=O)C(=O)N(CCCCC(NC(C)=O)C(=O)NCc1ccccc1)Cc1ccccc1 (stereo unspecified)
inactive: NCI-H460 39.2 µM | SNB-75 38.4 µM | OVCAR-8 35.2 µM | A549 38.5 µM | M14 22.6 µM | NCI-H226 25.4 µM | CAKI-1 28.6 µM | ACHN 42.9 µM | HT-29 19.5 µM | SK-MEL-28 44.1 µM | TK-10 35.1 µM | UACC-257 36.1 µM | SW-620 33.8 µM | RPMI-8226 16.1 µM | NCI-H522 15.1 µM | OVCAR-4 25.9 µM | MOLT-4 13.8 µM

Cc1cc2c(=O)cc(-c3ccncc3)oc2c(C(N)=O)c1C
inactive: NCI-H460 87.9 µM | SNB-75 > 100 µM | OVCAR-8 > 100 µM | A549 > 100 µM | NCI-H226 > 100 µM | ACHN > 100 µM | HCC 2998 > 100 µM | HT-29 > 100 µM | SK-MEL-28 > 100 µM | TK-10 > 100 µM | UACC-257 > 100 µM | SW-620 > 100 µM | RPMI-8226 > 100 µM | MOLT-4 > 100 µM
